In PubChem BioAssay AID248 (DTP/NCI, 2004):
“And” between values parts separate entries of the source, which are not always exact repeats. Equal entries are not always repeated. Inconclusive results and toxic doses are left out.

Test system: L1210 leukemia ip in BDF1 mice, survival T/C
Test: NCI In Vivo Anticancer Drug Screen. Data for tumor model L1210 Leukemia (intraperitoneal) in B6D2F1 (BDF1) mice
Settings: endpoint: mean survival time, higher = longer survival
Method in brief: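 Transplantable tumor model; survival measured in treated vs vehicle control mice. Value = treated/control.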

[1] = dose: 100.0 mg/kg/injection, schedule: Q01DX001 (ip), vehicle: saline
[2] = dose: 200.0 mg/kg/injection, schedule: Q01DX001 (ip), vehicle: saline
[3] = dose: 25.0 mg/kg/injection, schedule: Q01DX009 (ip), vehicle: Klucel (hydroxypropylcellulose) (HPC)
[4] = dose: 50.0 mg/kg/injection, schedule: Q01DX009 (ip), vehicle: Klucel (hydroxypropylcellulose) (HPC)
[5] = dose: 100.0 mg/kg/injection, schedule: Q01DX009 (ip), vehicle: Klucel (hydroxypropylcellulose) (HPC)
[6] = dose: 50.0 mg/kg/injection, schedule: Q04DX003 (ip), vehicle: Klucel (hydroxypropylcellulose) (HPC)
[7] = dose: 100.0 mg/kg/injection, schedule: Q04DX003 (ip), vehicle: Klucel (hydroxypropylcellulose) (HPC)
[8] = dose: 100.0 mg/kg/injection, schedule: Q04DX003 (ip), vehicle: saline
[9] = dose: 200.0 mg/kg/injection, schedule: Q04DX003 (ip), vehicle: saline
[10] = dose: 400.0 mg/kg/injection, schedule: Q04DX003 (ip), vehicle: saline

COc1ccc(OCCC(=O)O)cc1 was tested, and the T/C [1] was 90 % of control and the T/C [2] was 93 % of control.
In the case of N/C(=N/N=C\c1ccccc1Cl)N/N=C/c1ccccc1Cl, the T/C (dose: 15.0 mg/kg/injection, schedule: Q01DX Z (ip), vehicle: carboxymethylcellulose (CMC)) is reported as 94 % of control, the T/C (dose: 30.0 mg/kg/injection, schedule: Q01DX Z (ip), vehicle: carboxymethylcellulose (CMC)) is reported as 100 % of control and the T/C (dose: 60.0 mg/kg/injection, schedule: Q01DX Z (ip), vehicle: carboxymethylcellulose (CMC)) is reported as 95 % of control. For the same compound, the T/C (dose: 120.0 mg/kg/injection, schedule: Q01DX Z (ip), vehicle: carboxymethylcellulose (CMC)) was 94 % of control, the T/C (dose: 120.0 mg/kg/injection, schedule: Q01DX Z (oral), vehicle: carboxymethylcellulose (CMC)) was 100 % of control and the T/C (dose: 240.0 mg/kg/injection, schedule: Q01DX Z (oral), vehicle: carboxymethylcellulose (CMC)) was 100 % of control. For the same compound, the T/C (dose: 960.0 mg/kg/injection, schedule: Q01DX Z (oral), vehicle: carboxymethylcellulose (CMC)) was 101 % of control.
With CCC/C(C)=N/Nc1ccccn1 the T/C (dose: 12.5 mg/kg/injection, schedule: Q01DX009 (ip), vehicle: Klucel (hydroxypropylcellulose) (HPC)) was 97 % of control, the T/C [3] was 94 % of control and the T/C (dose: 25.0 mg/kg/injection, schedule: Q01DX009 (ip), vehicle: acetone) was 106 % of control. The T/C [4] was 102 % of control, the T/C (dose: 50.0 mg/kg/injection, schedule: Q01DX009 (ip), vehicle: acetone) was 87 % of control and the T/C (dose: 50.0 mg/kg/injection, schedule: Q04DX003 (ip), vehicle: acetone) was 103 % of control. The T/C (dose: 100.0 mg/kg/injection, schedule: Q01DX001 (ip), vehicle: acetone) was 98 % of control, the T/C [5] was 102 % of control and the T/C (dose: 100.0 mg/kg/injection, schedule: Q04DX003 (ip), vehicle: acetone) was 97 % of control. The T/C (dose: 200.0 mg/kg/injection, schedule: Q01DX001 (ip), vehicle: acetone) was 103 % of control.
For Fc1c(F)c(F)[c]([Hg][c]2c(F)c(F)c(F)c(F)c2F)c(F)c1F, the T/C (dose: 3.13 mg/kg/injection, schedule: Q04DX002 (ip), vehicle: saline with Tween-80) was 107 % of control, the T/C (dose: 6.25 mg/kg/injection, schedule: Q04DX002 (ip), vehicle: saline with Tween-80) was 93 % of control and the T/C (dose: 12.5 mg/kg/injection, schedule: Q04DX002 (ip), vehicle: saline with Tween-80) was 87 % of control. For the same compound, the T/C (dose: 25.0 mg/kg/injection, schedule: Q04DX002 (ip), vehicle: saline with Tween-80) was 97 % of control.
Nc1nc(=S)c2[nH]c(N=Nc3ccc(S(=O)(=O)O)cc3)nc2[nH]1 was tested, and the T/C [3] was 100 % of control, the T/C [4] was 102 % of control and the T/C [6] was 114 % of control. For the same compound, the T/C [5] was 102 % of control and the T/C [7] was 153 % of control.
O=C(COc1ccccc1)Nc1ccc[n+](Cc2ccc(S(=O)(=O)F)cc2)c1 was tested, and the T/C [8] was 95 % of control and 118 % of control, the T/C [9] was 101 % of control and 118 % of control and the T/C [10] was 95 % of control and 114 % of control.
In the case of CC1(C)OCC2OC3(C(=O)O)OC(C)(C)OC3C2O1 (configuration not stated), the T/C (dose: 25.0 mg/kg/injection, schedule: Q01DX009 (ip), vehicle: water) is reported as 105 % of control, the T/C (dose: 50.0 mg/kg/injection, schedule: Q01DX009 (ip), vehicle: water) is reported as 101 % of control and the T/C (dose: 100.0 mg/kg/injection, schedule: Q01DX009 (ip), vehicle: water) is reported as 96 % of control. The T/C (dose: 200.0 mg/kg/injection, schedule: Q01DX009 (ip), vehicle: water) was 101 % of control and the T/C (dose: 400.0 mg/kg/injection, schedule: Q01DX009 (ip), vehicle: water) was 95 % of control.
CCOc1ccc2nc(S(N)(=O)=O)sc2c1 was tested, and the T/C (dose: 100.0 mg/kg/injection, schedule: Q01DX Z (ip), vehicle: saline) was 100 % of control, the T/C (dose: 200.0 mg/kg/injection, schedule: Q01DX Z (ip), vehicle: saline) was 97 % of control and the T/C (dose: 400.0 mg/kg/injection, schedule: Q01DX Z (ip), vehicle: saline) was 111 % of control.
In the case of CCn1c(C)cc(O)cc1=O, the T/C (dose: 100.0 mg/kg/injection, schedule: Q01DX009 (ip), vehicle: saline with Tween-80) is reported as 94 % of control, the T/C (dose: 200.0 mg/kg/injection, schedule: Q01DX009 (ip), vehicle: saline with Tween-80) is reported as 92 % of control and the T/C (dose: 400.0 mg/kg/injection, schedule: Q01DX009 (ip), vehicle: saline with Tween-80) is reported as 94 % of control.
With COc1cc(Br)c(NC(C)=O)cc1OC the T/C [1] was 98 % of control, the T/C [2] was 108 % of control and the T/C (dose: 400.0 mg/kg/injection, schedule: Q01DX001 (ip), vehicle: saline) was 96 % of control.
In the case of CCCNS(=O)(=O)c1ccc(Cl)c([N+](=O)[O-])c1, the T/C (dose: 12.5 mg/kg/injection, schedule: Q04DX003 (ip), vehicle: Klucel (hydroxypropylcellulose) (HPC)) is reported as 100 % of control, the T/C (dose: 25.0 mg/kg/injection, schedule: Q04DX003 (ip), vehicle: Klucel (hydroxypropylcellulose) (HPC)) is reported as 97 % of control and the T/C [6] is reported as 100 % of control. For the same compound, the T/C [7] was 98 % of control and the T/C (dose: 200.0 mg/kg/injection, schedule: Q04DX003 (ip), vehicle: Klucel (hydroxypropylcellulose) (HPC)) was 103 % of control.
O=c1[nH]cnc2c1ncn2C1CCCC1 was tested, and the T/C (dose: 18.12 mg/kg/injection, schedule: Q01DX Z (ip), vehicle: carboxymethylcellulose (CMC)) was 98 % of control, the T/C (dose: 36.25 mg/kg/injection, schedule: Q01DX Z (ip), vehicle: carboxymethylcellulose (CMC)) was 98 % of control and the T/C (dose: 36.25 mg/kg/injection, schedule: Q01DX Z (oral), vehicle: carboxymethylcellulose (CMC)) was 110 % of control. For the same compound, the T/C (dose: 72.5 mg/kg/injection, schedule: Q01DX Z (ip), vehicle: carboxymethylcellulose (CMC)) was 93 % of control, the T/C (dose: 72.5 mg/kg/injection, schedule: Q01DX Z (oral), vehicle: carboxymethylcellulose (CMC)) was 98 % of control and the T/C (dose: 145.0 mg/kg/injection, schedule: Q01DX Z (ip), vehicle: carboxymethylcellulose (CMC)) was 98 % of control. For the same compound, the T/C (dose: 145.0 mg/kg/injection, schedule: Q01DX Z (oral), vehicle: carboxymethylcellulose (CMC)) was 102 % of control and the T/C (dose: 290.0 mg/kg/injection, schedule: Q01DX Z (oral), vehicle: carboxymethylcellulose (CMC)) was 110 % of control.
For CC1=C(C#N)C(C)(C)c2ccccc21, the T/C (dose: 100.0 mg/kg/injection, schedule: Q04DX002 (ip), vehicle: saline with Tween-80) was 110 % of control, the T/C (dose: 200.0 mg/kg/injection, schedule: Q04DX002 (ip), vehicle: saline with Tween-80) was 100 % of control and the T/C (dose: 400.0 mg/kg/injection, schedule: Q04DX002 (ip), vehicle: saline with Tween-80) was 100 % of control.
For C1O[C@@H]1[C@H]1CO1, the T/C (dose: 9.5 mg/kg/injection, schedule: Q01DX001 (ip), vehicle: saline) was 100 % of control, the T/C (dose: 19.0 mg/kg/injection, schedule: Q01DX001 (ip), vehicle: saline) was 97 % of control and the T/C (dose: 38.0 mg/kg/injection, schedule: Q01DX001 (ip), vehicle: saline) was 101 % of control.
In the case of Cc1c2ccccc2c(CCl)c2ccc3ccccc3c12, the T/C (dose: 12.5 mg/kg/injection, schedule: Q01DX009 (ip), vehicle: carboxymethylcellulose (CMC)) is reported as 110 % of control and the T/C (dose: 25.0 mg/kg/injection, schedule: Q01DX009 (ip), vehicle: carboxymethylcellulose (CMC)) is reported as 113 % of control.
With O=C1c2cccc(Cl)c2C(=O)c2c(Cl)cccc21 the T/C (dose: 100.0 mg/kg/injection, schedule: Q04DX002 (ip), vehicle: Klucel (hydroxypropylcellulose) (HPC)) was 100 % of control and 91 % of control, the T/C (dose: 200.0 mg/kg/injection, schedule: Q04DX002 (ip), vehicle: Klucel (hydroxypropylcellulose) (HPC)) was 94 % of control and the T/C (dose: 400.0 mg/kg/injection, schedule: Q04DX002 (ip), vehicle: Klucel (hydroxypropylcellulose) (HPC)) was 102 % of control and 113 % of control.
With Cn1cnc([N+](=O)[O-])c1Sc1c[nH]c(=O)[nH]c1=O the T/C (dose: 25.0 mg/kg/injection, schedule: Q04DX003 (ip), vehicle: saline) was 107 % of control, the T/C (dose: 50.0 mg/kg/injection, schedule: Q04DX003 (ip), vehicle: saline) was 96 % of control and the T/C [8] was 104 % of control. The T/C [9] was 93 % of control and the T/C [10] was 94 % of control.
For CO/C=C(\C)C(=O)O, the T/C (dose: 100.0 mg/kg/injection, schedule: Q01DX001 (ip), vehicle: other) was 102 % of control, the T/C (dose: 200.0 mg/kg/injection, schedule: Q01DX001 (ip), vehicle: other) was 98 % of control and the T/C (dose: 400.0 mg/kg/injection, schedule: Q01DX001 (ip), vehicle: other) was 93 % of control.
For O=C(Oc1ccccc1I)c1cc(I)c(I)c(I)c1, the T/C [7] was 92 % of control and the T/C (dose: 400.0 mg/kg/injection, schedule: Q04DX003 (ip), vehicle: Klucel (hydroxypropylcellulose) (HPC)) was 94 % of control.
On1ccc(N2CCOCC2)cc1=Nc1ccccc1 was tested, and the T/C [1] was 96 % of control.
With CCCCC(=O)N/N=C\c1ccc(-c2ccccc2)cc1 the T/C [1] was 93 % of control and the T/C [2] was 96 % of control.
